Reference: ChEMBL document CHEMBL4813985, “Lead optimization generates selenium-containing miconazole CYP51 inhibitors with improved pharmacological profile for the treatment of fungal infections” (Eur J Med Chem, 2021)
Values after ≈ are worked out from the molar mass of the structure shown.

Tests used:
Candida albicans [1] = assay: Antifungal activity against fluconazole-resistant Candida albicans 904 assessed as inhibition of microbial growth after 24 hrs by broth microdilution method; type: functional
Candida albicans [2] = assay: Antifungal activity against fluconazole-resistant Candida albicans 632 assessed as inhibition of microbial growth after 24 hrs by broth microdilution method; type: functional
Candida albicans [3] = assay: Antifungal activity against Candida albicans CPCC400616 measured after 24 hrs by broth microdilution assay; type: functional
Candida albicans [4] = assay: Antifungal activity against fluconazole-resistant Candida albicans 17# assessed as inhibition of microbial growth after 24 hrs by broth microdilution method; type: functional
Candida albicans [5] = assay: Antifungal activity against Candida albicans ATCC SC5314 measured after 24 hrs by broth microdilution assay; type: functional
Candida albicans [6] = assay: Antifungal activity against fluconazole-resistant Candida albicans 901 assessed as inhibition of microbial growth after 24 hrs by broth microdilution method; type: functional
Candida parapsilosis = assay: Antifungal activity against Candida parapsilosis ATCC 22019 measured after 24 hrs by broth microdilution assay; type: functional; conditions: Lodderomyces parapsilosis
Candida albicans [7] = assay: Potency index, ratio of miconazole MIC to test compound MIC for Candida albicans CPCC400616 measured after 24 hrs by broth microdilution assay; type: functional
Aspergillus fumigatus = assay: Antifungal activity against Aspergillus fumigatus CMGCC3.7795 measured after 72 hrs by broth microdilution assay; type: functional
Cryptococcus neoformans = assay: Antifungal activity against Cryptococcus neoformans CMGCC2.3161 measured after 72 hrs by broth microdilution assay; type: functional
[Candida] zeylanoides = Antifungal activity against Candida zeylanoides CMGCC2.3739 measured after 24 hrs by broth microdilution assay; type: functional; conditions: Dujonia zeylanoides
Candida albicans [8] = assay: Potency index, ratio of fluconazole MIC to test compound MIC for Candida albicans CPCC400616 measured after 24 hrs by broth microdilution assay; type: functional
Pichia kudriavzevii = assay: Antifungal activity against Candida krusei AS2.1045 measured after 24 hrs by broth microdilution assay; type: functional
Nakaseomyces glabratus = assay: Antifungal activity against Candida glabrata measured after 24 hrs by broth microdilution assay; type: functional
Candida albicans [9] = assay: Antifungal activity against fluconazole-resistant Candida albicans CaR assessed as inhibition of microbial growth after 24 hrs by broth microdilution method; type: functional
MCF-10A = assay: Cytotoxicity against human MCF-10A cells assessed as reduction in cell viability incubated for 96 hrs by MTT assay; type: cell-based; conditions: read-out: IC50
MDA-MB-231 = assay: Cytotoxicity against human MDA-MB-231 cells assessed as reduction in cell viability incubated for 96 hrs by MTT assay; conditions: MDA-MB-231, 96 h
[10] = Metabolic stability in mouse liver microsomes assessed as half life; type: ADME, Microsome
[11] = Hemolytic activity in rabbit RBC assessed as hemolysis ratio at 1 ug/ml measured after 3 hrs by microplate reader assay relative to control; type: ADME, cell-based, Oryctolagus cuniculus, Erythrocyte; conditions: rabbit red blood cells (erythrocytes), at 1 µg/mL, read-out: Activity
[12] = Hemolytic activity in rabbit RBC assessed as hemolysis ratio at 8 ug/ml measured after 3 hrs by microplate reader assay relative to control; type: ADME, cell-based, Oryctolagus cuniculus, Erythrocyte; conditions: rabbit red blood cells (erythrocytes), at 8 µg/mL, read-out: Activity
Candida albicans [13] = assay: Anti-biofilm activity in Candida albicans CPCC400616 assessed as inhibition of biofilm formation incubated for 24 hrs with 24 hrs precultured fungal suspension by XTT assay; type: functional
Candida albicans [14] = assay: Fungicidal activity against Candida albicans CPCC400616 assessed as fungal killing incubated for 48 hrs followed by culturing on PDA plate for 24 hrs; type: functional; conditions: time 72 hrs
Candida albicans [15] = assay: Anti-biofilm activity in Candida albicans CPCC400616 assessed as inhibition of biofilm formation incubated for 24 hrs with 1.5 hrs precultured fungal suspension by XTT assay; type: functional
[16] = Hemolytic activity in rabbit RBC assessed as hemolysis ratio at 16 ug/ml measured after 3 hrs by microplate reader assay relative to control; type: ADME, cell-based, Oryctolagus cuniculus, Erythrocyte; conditions: rabbit red blood cells (erythrocytes), at 16 µg/mL, read-out: Activity
Candida albicans [17] = assay: Anti-biofilm activity in Candida albicans CPCC400616 assessed as inhibition of biofilm formation incubated for 24 hrs with 3 hrs precultured fungal suspension by XTT assay; type: functional
HL-60 = assay: Cytotoxicity against human HL-60 cells assessed as reduction in cell viability incubated for 96 hrs by MTT assay; type: cell-based; conditions: HL-60, 96 h
PC-3 = assay: Cytotoxicity against human PC3 cells assessed as reduction in cell viability incubated for 96 hrs by MTT assay; type: cell-based; conditions: PC-3, 96 h, read-out: IC50
[18] = Hemolytic activity in rabbit RBC assessed as hemolysis ratio at 2 ug/ml measured after 3 hrs by microplate reader assay relative to control; type: ADME, cell-based, Oryctolagus cuniculus, Erythrocyte; conditions: rabbit red blood cells (erythrocytes), at 2 µg/mL, read-out: Activity
[19] = Metabolic stability in mouse liver microsomes assessed as clearance; type: ADME, Microsome; conditions: read-out: CLH
Candida albicans [20] = assay: Anti-biofilm activity in Candida albicans CPCC400616 assessed as inhibition of biofilm formation incubated for 24 hrs with 6 hrs precultured fungal suspension by XTT assay; type: functional
[21] = Hemolytic activity in rabbit RBC assessed as hemolysis ratio at 4 ug/ml measured after 3 hrs by microplate reader assay relative to control; type: ADME, cell-based, Oryctolagus cuniculus, Erythrocyte; conditions: rabbit red blood cells (erythrocytes), at 4 µg/mL, read-out: Activity

Structure (SMILES)	MIC (Candida albicans [1]) [µg/mL]	MIC (Candida albicans [2]) [µg/mL]	MIC (Candida albicans [3]) [µg/mL]	MIC (Candida albicans [4]) [µg/mL]	MIC (Candida albicans [5]) [µg/mL]	MIC (Candida albicans [6]) [µg/mL]	MIC (Candida parapsilosis) [µg/mL]	MIC (Aspergillus fumigatus) [µg/mL]	MIC (Cryptococcus neoformans) [µg/mL]	MIC ([Candida] zeylanoides) [µg/mL]	Ratio (Candida albicans [8])	MIC (Pichia kudriavzevii) [µg/mL]	MIC (Nakaseomyces glabratus) [µg/mL]	MIC (Candida albicans [9]) [µg/mL]	further results
Cc1cccc(C)c1[Se]C(Cn1ccnc1)c1ccc(F)cc1F (centres undefined)	2	1	0.03 (≈ 0.0767 µM)	0.25	0.02 (≈ 0.0511 µM)	2	0.06 (≈ 0.153 µM)	8 (≈ 20.4 µM)	0.25 (≈ 0.639 µM)	0.13 (≈ 0.332 µM)	8	0.02 (≈ 0.0511 µM)	0.5 (≈ 1.28 µM)	8	Ratio (Candida albicans [7]): 8
CCc1ccccc1[Se]C(Cn1ccnc1)c1ccc(F)cc1F (centres undefined)	0.5	1	0.06 (≈ 0.153 µM)	0.5	0.03 (≈ 0.0767 µM)	2	0.03 (≈ 0.0767 µM)	16 (≈ 40.9 µM)	1 (≈ 2.56 µM)	0.25 (≈ 0.639 µM)	8	0.06 (≈ 0.153 µM)	0.5 (≈ 1.28 µM)	0.5	IC50 (MCF-10A): 28.1 µM; IC50 (MDA-MB-231): 26.2 µM; half-life [10]: 14.9 min; hemolysis at 3 h, 1 ug/ml [11]: 0%; hemolysis at 3 h, 8 ug/ml [12]: 100%; MIC50 (Candida albicans [13]): > 128 µg/mL; MIC80 (Candida albicans [13]): > 128 µg/mL; MFC99 (Candida albicans [14]): 0.25 µg/mL (≈ 0.639 µM); MIC50 (Candida albicans [15]): 8 µg/mL (≈ 20.4 µM); MIC80 (Candida albicans [15]): 128 µg/mL (≈ 327 µM); hemolysis at 3 h, 16 ug/ml [16]: 100%; MIC50 (Candida albicans [17]): 16 µg/mL (≈ 40.9 µM); MIC80 (Candida albicans [17]): > 128 µg/mL; IC50 (HL-60): 16.9 µM; IC50 (PC-3): 30.2 µM; hemolysis at 3 h, 2 ug/ml [18]: 0%; CLint scaled [19]: 368 mL/min/kg; MIC50 (Candida albicans [20]): > 128 µg/mL; MIC80 (Candida albicans [20]): > 128 µg/mL; hemolysis at 3 h, 4 ug/ml [21]: 93.6%
